# Source: the supplement of paper PMC10307832
# Assays:
# Experiment in all cases: relative viability (nuclei count vs DMSO), 5 days (fraction); higher = more cells survive
# Ibrutinib + Bortezomib = compound: C=CC(=O)N1CCC[C@@H](n2nc(-c3ccc(Oc4ccccc4)cc3)c3c(N)ncnc32)C1 [Ibrutinib] + CC(C)C[C@H](NC(=O)[C@H](Cc1ccccc1)NC(=O)c1cnccn1)B(O)O [Bortezomib] (partner 0.002 µM)
# How it was run: (§1)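 Lung cancer cell lines in 1536-well plates got either a single drug or a fixed anchor-drug dose together with five library-drug doses (not always all listed) in √10 steps, by pin tool, on the day after seeding. Nuclei were counted after 5 days, and relative viability is the treated-to-vehicle ratio of nuclei counts. Values are medians of duplicate plates.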
# Ibrutinib + Alpelisib = compound: C=CC(=O)N1CCC[C@@H](n2nc(-c3ccc(Oc4ccccc4)cc3)c3c(N)ncnc32)C1 [Ibrutinib] + Cc1nc(NC(=O)N2CCC[C@H]2C(N)=O)sc1-c1ccnc(C(C)(C)C(F)(F)F)c1 [Alpelisib] (partner 2 µM)
# How it was run: as §1
# BMX-IN-1 + Crizotinib = compound: C=CC(=O)Nc1cc(-n2c(=O)ccc3cnc4ccc(-c5ccc(NS(C)(=O)=O)cc5)cc4c32)ccc1C [BMX-IN-1] + C[C@@H](Oc1cc(-c2cnn(C3CCNCC3)c2)cnc1N)c1c(Cl)ccc(F)c1Cl [Crizotinib] (partner 1 µM)
# How it was run: as §1
# BMX-IN-1 + Alpelisib = compound: C=CC(=O)Nc1cc(-n2c(=O)ccc3cnc4ccc(-c5ccc(NS(C)(=O)=O)cc5)cc4c32)ccc1C [BMX-IN-1] + Cc1nc(NC(=O)N2CCC[C@H]2C(N)=O)sc1-c1ccnc(C(C)(C)C(F)(F)F)c1 [Alpelisib] (partner 2 µM)
# How it was run: as §1
Cell Line,relative viability (Ibrutinib + Bortezomib; first compound 0.005 µM),relative viability (Ibrutinib + Bortezomib; first compound 0.01581 µM),relative viability (Ibrutinib + Bortezomib; first compound 0.05 µM),relative viability (Ibrutinib + Bortezomib; first compound 0.1581 µM),relative viability (Ibrutinib + Bortezomib; first compound 0.5 µM),relative viability (Ibrutinib + Alpelisib; first compound 0.01581 µM),relative viability (Ibrutinib + Alpelisib; first compound 0.05 µM),relative viability (Ibrutinib + Alpelisib; first compound 0.1581 µM),relative viability (Ibrutinib + Alpelisib; first compound 0.5 µM),relative viability (BMX-IN-1 + Crizotinib; first compound 0.02 µM),relative viability (BMX-IN-1 + Crizotinib; first compound 0.2 µM),relative viability (BMX-IN-1 + Crizotinib; first compound 0.6325 µM),relative viability (BMX-IN-1 + Crizotinib; first compound 2 µM),relative viability (BMX-IN-1 + Alpelisib; first compound 0.02 µM),relative viability (BMX-IN-1 + Alpelisib; first compound 0.2 µM),relative viability (BMX-IN-1 + Alpelisib; first compound 0.6325 µM),relative viability (BMX-IN-1 + Alpelisib; first compound 2 µM),relative viability (Ibrutinib + Alpelisib; first compound 0.005 µM)
201T,1.05,1.06,1.13,1.09,1.09,0.97,1.03,1,0.938,1.03,1.05,1.09,1.05,1.02,1.02,0.987,1.02,–
A549,–,–,–,–,–,0.681,0.634,0.854,0.761,0.986,1.22,0.945,0.738,0.94,0.716,0.813,0.762,0.624
A-427,0.906,0.962,0.981,0.985,0.916,1.08,1.11,1.09,1.14,0.966,0.903,1.09,0.887,1.04,1.11,1.04,1.14,1.06
ABC-1,0.36,0.271,0.33,0.33,0.306,0.813,1.05,1.17,0.983,1.22,1.27,0.69,0.904,0.98,1.2,1.22,1.12,0.922
BEN,0.54,0.828,0.667,0.57,0.572,0.906,0.944,0.891,1.06,1.25,1.05,0.537,0.901,1.22,1.32,0.938,1.04,0.785
CAL-12T,0.988,0.915,0.836,0.884,0.693,0.831,1.14,1.18,0.698,0.798,0.827,0.618,0.562,1.74,1.27,1.04,1.32,–
COR-L23,1.13,0.992,0.983,0.917,1.1,0.702,0.73,0.775,0.865,0.942,0.641,0.864,0.767,0.95,0.962,0.926,0.921,0.947
COR-L 105,0.514,0.607,0.512,0.683,0.348,0.762,0.866,1.11,0.43,0.832,0.892,0.727,0.583,1.33,1.05,1.11,0.886,0.899
Calu-6,0.992,0.959,0.934,1.11,0.932,0.993,–,1.06,0.93,0.925,0.886,0.927,0.988,0.974,1.13,1.15,0.919,1.02
ChaGo-K-1,0.906,1.04,0.927,–,0.959,–,–,–,–,1.39,1.07,1.18,1.17,–,–,–,–,–
EBC-1,0.693,0.524,0.555,0.668,0.486,0.856,0.79,0.936,0.895,0.195,0.202,0.162,0.197,0.701,0.698,1.01,0.812,0.852
EKVX,0.894,0.929,0.975,0.925,0.489,0.776,0.829,0.799,0.562,1.18,1.29,0.882,1.01,0.942,0.965,0.951,0.828,–
EMC-BAC-2,1,1,0.997,1.05,1.01,0.697,0.75,0.741,0.547,0.858,0.877,0.797,0.718,0.891,0.873,0.783,0.625,0.728
EPLC-272H,–,0.881,0.924,0.839,0.753,1.02,0.836,0.848,0.759,1.04,0.968,0.96,0.96,0.973,1.15,1.08,0.94,–
H3255,0.583,0.889,0.51,0.617,0.313,0.699,0.474,1.05,0.214,0.969,1.11,0.968,0.924,0.798,0.657,0.815,0.712,0.555
HARA,1.02,1.14,0.987,0.976,0.937,0.763,0.681,0.974,0.332,1.39,1.24,1.16,1.09,1.04,0.883,0.787,0.846,0.903
HCC-15,1.13,–,–,–,1.1,0.867,0.99,0.853,0.851,0.991,0.945,0.953,0.762,1.08,1.02,0.924,0.882,0.956
HCC-44,0.896,0.881,0.987,0.908,0.946,0.658,0.874,0.87,0.724,0.907,0.834,0.944,0.889,0.869,0.905,1.01,0.794,0.864
HCC-78,0.513,0.453,0.58,0.496,0.488,0.315,0.292,0.391,0.24,0.379,0.347,0.335,0.405,0.355,0.319,0.391,0.175,0.346
HCC-366,1.03,0.977,1.09,1.01,1.07,0.496,0.372,0.414,0.466,0.582,1.01,0.586,0.703,0.704,0.575,0.412,0.354,0.459

Cell Line,relative viability (Ibrutinib + Bortezomib; first compound 0.005 µM),relative viability (Ibrutinib + Bortezomib; first compound 0.01581 µM),relative viability (Ibrutinib + Bortezomib; first compound 0.05 µM),relative viability (Ibrutinib + Bortezomib; first compound 0.1581 µM),relative viability (Ibrutinib + Bortezomib; first compound 0.5 µM),relative viability (Ibrutinib + Alpelisib; first compound 0.01581 µM),relative viability (Ibrutinib + Alpelisib; first compound 0.05 µM),relative viability (Ibrutinib + Alpelisib; first compound 0.1581 µM),relative viability (Ibrutinib + Alpelisib; first compound 0.5 µM),relative viability (BMX-IN-1 + Crizotinib; first compound 0.02 µM),relative viability (BMX-IN-1 + Crizotinib; first compound 0.2 µM),relative viability (BMX-IN-1 + Crizotinib; first compound 0.6325 µM),relative viability (BMX-IN-1 + Crizotinib; first compound 2 µM),relative viability (BMX-IN-1 + Alpelisib; first compound 0.02 µM),relative viability (BMX-IN-1 + Alpelisib; first compound 0.2 µM),relative viability (BMX-IN-1 + Alpelisib; first compound 0.6325 µM),relative viability (BMX-IN-1 + Alpelisib; first compound 2 µM),relative viability (Ibrutinib + Alpelisib; first compound 0.005 µM)
HCC-827,1.19,1.05,1.15,0.982,0.807,0.819,0.901,0.992,0.278,0.972,0.939,0.939,0.97,0.95,0.889,1.05,0.946,0.952
HOP-62,0.459,1,0.816,0.834,0.804,0.954,1.02,1.2,0.918,0.76,1.04,0.98,0.959,0.813,0.918,0.926,0.914,0.638
IA-LM,0.846,0.781,0.926,0.989,0.863,0.732,0.682,0.658,1,0.875,0.865,0.99,0.772,0.854,0.697,1.07,0.916,0.826
LC-2-ad,1.18,1,1.06,0.965,1.02,0.944,0.936,0.836,0.758,0.374,0.518,0.484,0.494,0.915,0.962,0.998,0.898,0.874
LCLC-97TM1,0.447,0.851,0.385,0.153,0.732,0.3,0.335,0.269,0.255,0.343,0.429,0.363,0.387,0.283,0.222,0.244,0.294,0.241
LCLC-103H,0.999,1.01,1.07,0.986,1.05,0.86,1.02,0.992,0.949,1.19,1.05,1.07,1.07,1.01,0.972,1.09,0.875,0.897
LK-2,–,–,–,–,–,0.837,1.36,0.938,0.89,0.232,0.207,0.252,0.191,1.75,1.43,1.04,0.993,–
LOU-NH91,0.509,0.553,0.513,0.476,0.478,0.597,0.592,0.67,0.48,–,0.764,0.752,0.731,–,0.686,0.768,0.709,0.652
LU99A,1.01,0.97,1.28,1.21,1.2,0.449,0.492,0.499,0.496,0.639,0.567,0.547,0.579,0.482,0.659,0.526,0.532,0.419
LXF-289,1.09,0.985,0.966,0.959,0.914,1.03,–,–,0.908,0.876,0.907,0.842,0.815,1.12,1.14,1.11,1.07,–
NCI-H23,0.839,1.02,0.938,1.07,1.13,0.695,0.566,0.76,0.6,0.501,0.538,0.419,0.5,0.617,0.793,0.603,0.692,0.514
NCI-H322M,1.09,1.22,1.25,1.24,1.07,0.807,0.779,0.838,0.486,1.02,1.05,0.982,0.887,0.882,0.825,0.757,0.772,0.752
NCI-H358,–,–,–,–,–,0.603,0.504,0.887,0.36,0.498,0.611,0.538,0.512,0.861,0.881,0.937,0.81,0.817
NCI-H441,0.518,0.498,0.45,0.575,0.479,0.54,0.868,0.871,0.711,0.861,0.936,0.884,0.787,0.658,0.917,1.04,0.641,0.908
NCI-H1395,–,–,–,–,–,0.988,1.35,1.16,0.997,–,–,–,–,1.07,1.05,1.15,0.962,0.997
NCI-H1650,0.22,0.216,0.23,0.203,0.22,–,–,–,–,1.15,1.11,1.03,0.918,–,–,–,–,–
NCI-H1793,–,–,–,–,–,0.635,0.605,0.587,0.575,–,–,–,–,1.14,0.873,0.665,0.563,–
NCI-H1944,–,–,–,–,–,0.685,0.784,0.755,0.521,1.21,1.28,1.21,1.07,0.858,0.931,0.921,0.798,0.659
NCI-H2170,–,–,–,–,–,0.362,0.278,0.773,0.231,1.5,1.27,1.1,1.38,0.91,0.859,0.921,0.821,0.728
